Experimental findings from US20130178391A1, “METHODS FOR PREDICTING TREATMENT RESPONSE BASED ON THE EXPRESSION PROFILES OF BIOMARKER GENES IN NOTCH MEDIATED CANCERS” (Rosetta Inpharmaceutics LLC, priority 2007, published 2013) are described below.

In one test the test system is TALL1. Kind of test: Flow cytometry DNA content analysis (cell cycle arrest). It counts as cell-based, Human. The settings on record: GSI sensitive cell line TALL1, flow cytometry. The protocol:
DNA content analysis was performed using Propidium Iodide/RNase buffer (BD Biosciences, Cat. No. 550825, San Jose, Calif.) or Draq5. Briefly, 1×10(6) cells were harvested and fixed with 70% ethanol for 20 minutes on ice, washed and then resupended in 500 uL of PI buffer for 15 min at room temperature followed by analysis on flow cytometer (FACSCalibur, BD Biosciences). Draq5 staining was performed by incubating 200,000 live cells with 10 uM Draq5 for 5 minutes followed by flow cytometric analysis (488 nm excitation).
On the technique in general: A flow cytometer gives signals particle by particle.

Test [1] has as its system CDKN2D, CDKN1B. The test can be described thus: Quantitative PCR of CDKN2D and CDKN1B in T-ALL cell lines. It counts as cell-based, Human. As to conditions: TALL1 cells, 48 hours. The protocol:
T-ALL cell lines were treated with DMSO or MRK-003 (active GSI) for 48 hours and then harvested. RNA was isolated using the RNeasy Mini Kit (Qiagen, Cat#: 74106). cDNA was synthesized using High Capacity Archive Kit (Applied Biosystems, Cat #: 4368814). qPCR was performed on an ABI 7900 using AACT protocol using their inventoried Taqman Probes/Primers for human CDKN2D, CDKN1B and GAPDH (as internal control). Analysis was performed in SDS 2.2.2 software (Applied Biosystems).

A further test relates to human T-ALL cell lines. Kind of test: Grouping of 16 T-ALL cell lines by GSI sensitivity (7-day ATP viability assay). It is filed as cell-based. The protocol:
(§1) Human T-ALL cell lines were purchased from ATCC (Manassas, Va.) or DSMZ (Braunschweig, Germany). Cell lines were maintained in RPMI supplemented with 10-15% FBS and 2 mmol/L glutamine. For IC50 analyses TALL cell lines were plated in 96 well plates at 5000 cells/well, except for Tall-1 cells which were plated at 10,000 cells/well. Cells were re-fed with compound and media on day 4. Viability assays were performed using Cell Titer Glo kit (Promega, Cat. No. G7572, Fitchburg, Wis.) 7 days after compound addition. For larger scale compound treatments, TALL cell lines were plated in T-150 flasks at 200,000 cells/mL and treated at 0.1 or 1.0 μM GSI (MRK-003) for 3 days or as indicated. GSI washout studies were performed using 10 μM GSI. T-150 cultures were also re-fed on day 4.
Previous studies have identified mutations in the heterodimerization domain or PEST domain of the NOTCH1 gene in T-ALL cell lines and patient samples resulting in increased NICD and presumably activation of the NOTCH signaling pathway (Weng, Ferrando et al. 2004; Zhu, Zhao et al. 2006). In a subset of human T-ALL cell lines with activating mutations in NOTCH1, treatment with GSIs leads to cell cycle arrest and apoptosis (Weng, Ferrando et al. 2004; Lewis, Leveridge et al. 2007). […] We determined IC50 values for 16 T-ALL cell lines using a 7-day viability assay which allowed grouping into four sensitivity groups (1) high, IC50<1 uM, (2) medium, IC50 3-4 uM, (3) low, IC50 6-7 uM, (4) none, IC50>10 uM and comparison to NOTCH1 mutuation and NICD protein Levels (Table1).
GSI IC50s, based on a 7-day ATP viability assay, are summarized for 16 T-ALL cell lines and grouped into high […], medium (3-4 uM), low (6-7 uM) or insensitive groupings (>10 uM). Also summarized is NOTCH1 mutation status, NICD levels and cell line group size for each sensitivity level previously described (O'Neil et al. 2007). NICD levels are reported qualitatively based on immunoblot signal, 0=none, 1=low, 2=medium, 3=high.

Test [2] has as its system CDKN2D, CDKN1B. Kind of test: Immunoblot of CDKN2D and CDKN1B. It is filed as cell-based, Human. As to conditions: TALL1 cells. From the text:
Standard western blotting procedures were used. Antibodies used as follows; Rb-underphosphorylated, (BD Biosciences, Cat. No 554164, San Jose, Calif.) Rb-Total (Cat. No. 9309), CDKN1B (Cell Signaling Technologies, Cat. No. 2552, Danvers, Mass.), CDKN2D (Santa Cruz Biotechnologies, Cat No. sc-1063, Santa Cruz, Calif.), Beta-Actin (Abcam Inc., Cat. No. 8226, Cambridge, Mass.) Immunoblot of NOTCH intracellular domain (NICD) was previously determined (O'Neil, Grim et al. 2007)
On the technique in general: In western blotting, separated proteins are transferred to a membrane and probed.

The next test has as its system TALL-1. Kind of test: 7-day Cell Titer Glo viability assay. As to conditions: TALL-1 cells, 7-day viability assay. It is filed as cell-based, Human. The protocol: as §1
Background: In ATP-based viability assays light output follows the ATP content of the culture.

The test system of a further test is HSB-2. Kind of test: 7-day Cell Titer Glo viability assay. It counts as cell-based, Human. The settings on record: HSB-2 cells, 7-day viability assay. The protocol: as §1
Another test relates to CEM. Kind of test: 7-day Cell Titer Glo viability assay. It is filed as cell-based, Human. The settings on record: CEM cells, 7-day viability assay. The protocol:
as §1

Another test deals with DND41. Kind of test: 7-day Cell Titer Glo viability assay. It is filed as cell-based, Human. As to conditions: DND41 cells, 7-day viability assay. The protocol:
as §1

In another test the test system is HBP-ALL. Kind of test: 7-day Cell Titer Glo viability assay. It is filed as cell-based, Human. As to conditions: HBP-ALL cells, 7-day viability assay. The protocol: as §1
The next test has as its system MOLT -4. The test can be described thus: 7-day Cell Titer Glo viability assay. It counts as cell-based, Human. As to conditions: MOLT -4 cells, 7-day viability assay. The protocol:
as §1

A further test concerns PF-382. Kind of test: 7-day Cell Titer Glo viability assay. It is filed as cell-based, Human. The settings on record: PF-382 cells, 7-day viability assay. The protocol:
as §1

In another test the test system is MOLT-16. The test can be described thus: 7-day Cell Titer Glo viability assay. It counts as cell-based, Human. As to conditions: MOLT-16 cells, 7-day viability assay. The protocol:
as §1

The test system of another test is KOPTK-1. Kind of test: 7-day Cell Titer Glo viability assay. It counts as cell-based, Human. As to conditions: KOPTK-1 cells, 7-day viability assay. The protocol:
as §1

The subject of another test is JURKAT. Kind of test: 7-day Cell Titer Glo viability assay. It is filed as cell-based, Human. As to conditions: JURKAT cells, 7-day viability assay. The protocol:
as §1

For another test, the system named is BE-13. Kind of test: 7-day Cell Titer Glo viability assay. It is filed as cell-based, Human. As to conditions: BE-13 cells, 7-day viability assay. The protocol:
as §1

Another test has as its system LOUCY. The test can be described thus: 7-day Cell Titer Glo viability assay. It is filed as cell-based, Human. As to conditions: LOUCY cells, 7-day viability assay. The protocol: as §1
A further test has as its system SKW-3. The test can be described thus: 7-day Cell Titer Glo viability assay. It is filed as cell-based, Human. As to conditions: SKW-3 cells, 7-day viability assay. The protocol: as §1
Another test has as its system SUPT-11. Kind of test: 7-day Cell Titer Glo viability assay. It counts as cell-based, Human. The settings on record: SUPT-11 cells, 7-day viability assay. The protocol:
as §1

The next test concerns KARPAS-45. The test can be described thus: 7-day Cell Titer Glo viability assay. It is filed as cell-based, Human. The settings on record: KARPAS-45 cells, 7-day viability assay. The protocol:
as §1

A further test deals with RPMI 8402. The test can be described thus: 7-day Cell Titer Glo viability assay. It counts as cell-based, Human. The settings on record: RPMI 8402 cells, 7-day viability assay. The protocol:
as §1

Structures are written as SMILES.

On to `O=S1(=O)N[C@@]2(CN1CC(F)(F)F)[C@@H]1CC[C@H]2Cc2ccc(/C=C/CN3CCC(C(F)(F)F)CC3)cc2C1` [MRK-003], for which, in the test on TALL1, the “cell cycle arrest (FIG. 3A)” value was “induced cell cycle arrest”. In the test with CDKN2D, CDKN1B [1], the “increases in CDKN2D and CDKN1B by quantitative PCR (FIG. 3B)” value is “increases in the CDKi CDKN2D and CDKN1B”. The “GSI Sensitivity” value in the test on human T-ALL cell lines (cell lines BE-13, SUPT-11) is given as “Low (low, IC50 6-7 uM)”; in the test on human T-ALL cell lines (cell lines CEM, PF-382, HSB-2), “Medium (medium, IC50 3-4 uM)”; in the test with human T-ALL cell lines (cell lines JURKAT, LOUCY, MOLT -4, MOLT-16, SKW-3), “None (none, IC50>10 uM)”; in the test with human T-ALL cell lines (cell lines TALL-1, KOPTK-1, DND41, HBP-ALL, KARPAS-45, RPMI 8402) it was “High (high, IC50<1 uM)”. The “increases in CDKN2D and CDKN1B by immunoblot (FIG. 3C)” value in the test on CDKN2D, CDKN1B [2] was “increases in the CDKi CDKN2D and CDKN1B”. Further, the IC50 – broadly, the concentration that gives 50% inhibition – was 0.11 µM with TALL-1; 3.7 µM in the test with HSB-2; 3.2 µM in the test on CEM; 0.25 µM with DND41; 0.38 µM in the test on HBP-ALL; greater than 10 µM in the test on MOLT -4. In addition, the IC50 in the test with PF-382 is 3.2 µM; in the test with MOLT-16 it was greater than 10 µM; in the test with KOPTK-1 it was 0.15 µM; with JURKAT, greater than 10 µM; in the test on BE-13, 6.8 µM; with LOUCY, greater than 10 µM. Moreover, the IC50 in the test with SKW-3 was greater than 10 µM; in the test with SUPT-11, 7.1 µM; with KARPAS-45 it was 0.81 µM; in the test on RPMI 8402, 0.86 µM.
